# Measured values as given in US9199200B2, “Submerged membrane bioreactor system and biological methods for removing bisphenol compounds from municipal wastewater” (Centre de Recherche Industrielle de Québec (CRIQ), priority 2010, dated 2015).
# Columns and labels:
# [1] = system: biomass (activated sludge) of the SMBR; experiment: COD removal in submerged membrane bioreactor (SMBR) fed synthetic wastewater contaminated by BPA
# Text: According to another embodiment, a submerged membrane bioreactor system (SMBR) operated at the laboratory scale is represented in the diagram of FIG. 1. The pilot unit is comprised of ZEEWEED® (ZW-1) hollow-fibre membranes of 0.04 μm rated pore diameter and 0.047 m^2 total filtering surface area, assembled vertically. The membrane unit is provided by Zenon Environmental & Co (Oakville, ON, Canada). ZW-1 membrane, whose module contains 80 fibres of 20 cm length, may be either operated in closed loop or in continuous mode of operation, through a stirred 6 L tank of 19.1 cm water high. Filtration may be achieved by drawing water through the membrane under a slight vacuum generated by a peristaltic pump (11) and measured by a manometer (10) located just after the membrane on the aspiration line. Air may be supplied through an extended aeration tube located inside the membrane module and also used to attach it vertically. The filtration of the effluent may be carried out intermittently (5 min of filtration followed by 30 s of pause) but air should be continuously injected in the SMBR system. An oxygen probe (5) may be connected to an oxymeter and installed in the bioreactor tank to measure dissolved oxygen concentration. The air flow-rate may be measured using a flow-meter (17). pH and temperature can also be measured during the experiments by using pH (8) and temperature (9) probes installed in the bioreactor tank.
# According to some embodiments of the present invention, the SMBR system may be seeded by activated sludge collected from any suitable municipal wastewater treatment plant. The first step consists in developing the biomass by using a synthetic wastewater of a known composition carried out according known techniques. For example, the initial biomass may be developed using glucose as an organic substrate (400-2000 mg/L of COD), although any other suitable sources of carbon may be employed as organic substrates, for example sodium acetate or peptone. The biomass is developed over a period of time suitable to obtain a sufficiently concentrated biomass. […]
# According to an embodiment, the biomass may be acclimatized in oxidizing the bisphenol compound over of period of time sufficient to obtain a biomass capable of oxidizing said bisphenol compound. […] It is worth noting that, during both successive stages (biomass development and biomass acclimatization), the performance of the SMBR was evaluated by the measurements of COD. […]
# During the experimental work, samples are taken for different analyses. […] BPA is also analyzed using liquid chromatography mass spectrometer (LC-MS/MS) after extraction and purification on a solid phase. […]
# [2] = Sorption time course of BPA on activated and inactivated sludge in shake flasks; assay type: physicochemical; details: average over the first 30 min; initial 5.0 or 10 mg/L; 15 g TSS/L
# Protocol: To elucidate the plausible mechanisms of the biological removal of the bisphenol compounds, the removal of BPA was tested (adsorption on the biomass versus biological oxidation), and additional experiments are carried out in Erlenmeyer shake flasks containing either activated sludge or inactivated sludge in the presence of BPA. The sludge used for the tests is withdrawn from the SMBR unit. Prior to BPA addition in activated sludge sample, sludge is initially centrifuged at 8000 rpm at 4° C. for 10 min and softly washed. The inactivated sludge is prepared by subjecting sludge samples to a sterilization by adding 1.0 mL HgSO4 (20 g/L) to 200 mL of sludge. Then, the sterilized and centrifuged sample sludge is placed in conical flasks and shaken at 150 rpm at 22±2° C. for 2 h, and then centrifuged at 8000 rpm at 4° C. for 10 min. Different concentrations of BPA (0.45 to 18.2 mg/L) are added in the same mass of sludge (3.0 g of sludge diluted to 200 mL with milli-Q water). […] The flasks are shaken at 150 rpm at 22±2° C., pH=7±0.5 for 24 h and samples are taken in regular time intervals, and the amount of BPA adsorbed is determined by measuring the residual BPA concentrations in solution The same assay is carried out using inactivated sludge. […]
# aquatic ecosystems = details: Oehlmann et al.; cited from earlier work
smiles,measurement,setting,value
"CC(C)(c1ccc(O)cc1)c1ccc(O)cc1 [BPA, 2,2-Bis(4-hydroxyphenyl)propane]",BPA concentration at the entry of the SMBR from which foam is observed in the mixed liquor (perturbation in the bacterial activity),"[1]; 14 g VSS/L, HRT 6 h",≥ 25 mg/L
same,Volumetric loading at which BPA became toxic for the bacterial activity,"[1]; SMBR, around 5.0 mg/L BPA",21.6 g BPA/m^3/d
same,"Limit of toxicity, organic loading","[1]; SMBR, at 25 mg BPA/L",7.71 g BPA/kg VSS/d
same,"Limit of toxicity, volumetric loading","[1]; SMBR, at 25 mg BPA/L",about 108 g BPA/m^3/d
same,BPA removed by physical sorption,[2],69%
same,Concentration of BPA with adverse effects in aquatic ecosystems,aquatic ecosystems,below 1.0 μg/L
